From patent publication US20090111894A1, “Method of Preventing Microbial Growth” (priority 2005, published 2009)

Experiments:
Assay type in all cases: cell-based
[1] = system: Zygosaccharomyces bailii; experiment: Inhibition effect in Ice Tea (MIC); settings: Lipton Ice Tea with apple juice, 25° C.
Procedure: (§1) The inhibition effect of Hydroxyacetaldehyde was tested in Ice Tea at various concentrations, at 2 different pH's and against 2 micro-organisms at 25° C. Tested were: • Zygosaccharomyces bailii • Talaromyces trachyspermus
(§2) The medium was Lipton Ice Tea with apple juice. The pH of the medium was set at 4.5 and 6.0, respectively. Hydroxyacetaldehyde concentrations were: 0, 0.0125, 0.025, 0.05, 0.1, 0.2, 0.4 and 0.8%. Growth was recorded by an automated optical density reader NEPHELOstar Galaxy of the manufacturer BMG. The MIC (Minimal Inhibition Concentration) for the different micro-organisms were: […]

[2] = system: Talaromyces trachyspermus; experiment: Inhibition effect in Ice Tea (MIC); settings: Lipton Ice Tea with apple juice, 25° C.
Procedure: as §1, §2

[3] = system: Bacillus subtilus; experiment: Inhibition effect in model media (MIC), optical density growth reading; settings: BHI, 30° C., weight/volume
Procedure: (§3) The inhibition effect of Hydroxyacetaldehyde was tested in model media at various concentration levels and at 3 different pH's and against various micro-organisms at 30° C.
(§4) The medium was Brain Heart Infusion Broth (BHI) or Malt Water. Tested were: • Bacillus subtilus in BHI • Echerichia coli in BHI • Staphylococcus aureus in BHI • Saccharomyces cerevisieae in Malt water • Penicillium crustosum in Malt water
(§5) The pH of the media was set in the medium to 4.5 5.0 and 6.0, respectively. Hydroxyacetaldehyde concentrations were: 0, 0.0125, 0.025, 0.05, 0.1, 0.2, and 0.4%. Growth was recorded by an automated Optical Density reader (NEPHELOstar Galaxy of the manufacturer BMG).

[4] = system: Staphylococcus aureus; experiment: as above; settings: BHI, 30° C., weight/volume
Procedure: as §3, §4, §5

[5] = system: Echerichia coli; experiment: as above; settings: BHI, 30° C., weight/volume
Procedure: as §3, §4, §5

[6] = system: Penicillium crustosum; experiment: as above; settings: Malt water, 30° C., weight/volume
Procedure: as §3, §4, §5

[7] = system: Moulds; experiment: Reduction of organisms in corrugated board pulp; settings: pulp at 20° C.
Procedure: (§6) Contamination with moulds and bacteria is known to be serious problem for corrugated board. Hydroxyacetaldehyde was added to the corrugated board pulp during production to determine if it would be possible to produce a mould-free corrugated board.
(§7) To 40 gram of small pieces of cut corrugated board 300 ml of sterile water was added. This was mixed to form a pulp. This pulp was divided into 3 portions to which 0, 0.5 and 2% hydroxyacetaldehyde was added. The pulp was incubated at 20° C. and after 0, 2, 5 and 22 hours the number of organisms per gram pulp was measured. The reduction factor (cfu at to/cfu at tn) was as follows: […]

[8] = system: Bacteria; experiment: Reduction of organisms in corrugated board pulp; settings: pulp at 20° C.
Procedure: as §6, §7

[9] = system: Candida parapsilosis; experiment: Inhibition effect in model media (MIC), optical density growth reading; settings: 30° C., weight/volume
[10] = 0.5 hydroxyacetaldehyde, incubation 2 hours
[11] = 0.5 hydroxyacetaldehyde, incubation 5 hours
[12] = 0.5 hydroxyacetaldehyde, incubation 22 hours
[13] = 2% hydroxyacetaldehyde, incubation 2 hours
[14] = 2% hydroxyacetaldehyde, incubation 5 hours
[15] = 2% hydroxyacetaldehyde, incubation 22 hours

**Q.** Which results are given for `O=CCO` [Hydroxyacetaldehyde]?
**A.** MIC (Minimal Inhibition Concentration) ([1]; pH 4.5): 0.8%; MIC (Minimal Inhibition Concentration) ([1]; pH 6): 0.8%; MIC (Minimal Inhibition Concentration) ([2]; pH 4.5): 0.1%; MIC (Minimal Inhibition Concentration) ([2]; pH 6): 0.1%; MIC (Minimal Inhibition Concentration) ([3]; pH 4.5): 0.1%; MIC (Minimal Inhibition Concentration) ([3]; pH 5): 0.1%; MIC (Minimal Inhibition Concentration) ([3]; pH 6): 0.1%; MIC (Minimal Inhibition Concentration) ([4]; pH 4.5): 0.05%; MIC (Minimal Inhibition Concentration) ([4]; pH 5): 0.05%; MIC (Minimal Inhibition Concentration) ([4]; pH 6): 0.05%; MIC (Minimal Inhibition Concentration) ([5]; pH 4.5): 0.1%; MIC (Minimal Inhibition Concentration) ([5]; pH 5): 0.1%; MIC (Minimal Inhibition Concentration) ([5]; pH 6): 0.1%; MIC (Minimal Inhibition Concentration) ([6]; pH 4.5): 0.1%; MIC (Minimal Inhibition Concentration) ([6]; pH 6): 0.1%; reduction factor (cfu at to/cfu at tn) [7, 10]: 20; reduction factor (cfu at to/cfu at tn) [7, 11]: 40; reduction factor (cfu at to/cfu at tn) [7, 12]: >40; reduction factor (cfu at to/cfu at tn) [7, 13]: >40; reduction factor (cfu at to/cfu at tn) [7, 14]: >40; reduction factor (cfu at to/cfu at tn) [7, 15]: >40; reduction factor (cfu at to/cfu at tn) [8, 10]: 3.8; reduction factor (cfu at to/cfu at tn) [8, 11]: 4.1; reduction factor (cfu at to/cfu at tn) [8, 12]: 25.5; reduction factor (cfu at to/cfu at tn) [8, 13]: 7.4; reduction factor (cfu at to/cfu at tn) [8, 14]: 26.4; reduction factor (cfu at to/cfu at tn) [8, 15]: >1.4e4; MIC (Minimal Inhibition Concentration) ([9]; pH 4.5): 0.2%; MIC (Minimal Inhibition Concentration) ([9]; pH 6): 0.2%
